Values joined by “and” are separate entries in the source; they are usually repeats but may differ in a detail not shown here. Equal entries are not always repeated.
Assays:
CA-MRSA 40065 = experiment: Biocidal activity in bacterial suspension (Example 18); type: cell-based, Staphylococcus aureus; settings: Table 2, 15 ppm [Cl+], inoculum 1.57-1.75 × 10^6 CFU/mL
Method: Logarithmic-phase cultures of MRSA were prepared using similar way except TSA broth was used instead.
(§1) Biocidal activity of synthetic compounds was completed as followed. To 20 mL of bacterial suspension (10^5 or 10^6 cfu/mL) in a centrifuge tube was added 30 μL solution of synthetic compounds (0.282 M stock solution) to achieve a final [Cl^+] of 15 ppm. Timing of the exposure to the disinfectant was started immediately with the addition of the synthetic compound. After predetermined contact time, 1.0 mL aliquots were withdrawn and added to an equal volume of 0.02 N sodium thiosulfate in PBS (0.1 M, pH 7.4). The quenched suspension was serially diluted and 100 μL of each resulting dilution was placed onto nutrient agar plates. After being incubated at 37° C. for 24 hours, the viable bacterial colonies on the plates were counted. Bacterial reduction was reported according to:
(§2) Percentage reduction of bacteria (%)=(A−B)/A×100
(§3) Log reduction=Log(A/B) (4)
(§4) where A is the number of bacteria in the starting inoculum (cfu/mL), and B is the number of bacteria retrieved from synthetic compounds (cfu/mL).

P. aeruginosa 73104 = experiment: as above; type: cell-based, Pseudomonas aeruginosa; settings: 15 ppm [Cl+]; for Reduction of P. aeruginosa: 10^6 cfu/mL P. aeruginosa, within 60 min of contact
Method: Logarithmic-phase cultures of P. aeruginosa were prepared by initially suspending several colonies in cation-supplemented Mueller-Hinton broth (Oxoid, Nepean, Ontario, Canada) at a density equivalent to a 0.5 McFarland standard (1×10^8 cfu/mL). This suspension was then diluted 1:100 and 20 μL of the diluted suspension was further diluted in 60 mL of cation-supplemented Mueller-Hinton broth. Following overnight growth at 37° C., suspensions were diluted 1:[…] to get inoculums of approximately 1×10^6 or 1×10^5 cfu/mL.
as §1, §2, §3, §4

[1] = Table 3, contact 3 min, inoculum 2.26 × 10^5 CFU/mL
[2] = Table 3, contact 5 min, inoculum 2.26 × 10^5 CFU/mL
[3] = Table 3, contact 10 min, inoculum 2.26 × 10^5 CFU/mL
[4] = Table 3, contact 60 min, inoculum 2.26 × 10^5 CFU/mL
[5] = Table 3, contact 90 min, inoculum 2.26 × 10^5 CFU/mL
[6] = Table 4, contact 3 min, inoculum 2.26-2.98 × 10^5 CFU/mL
[7] = Table 4, contact 5 min, inoculum 2.26-2.98 × 10^5 CFU/mL
[8] = Table 4, contact 10 min, inoculum 2.26-2.98 × 10^5 CFU/mL
[9] = Table 4, contact 20 min, inoculum 2.26-2.98 × 10^5 CFU/mL
[10] = Table 4, contact 30 min, inoculum 2.26-2.98 × 10^5 CFU/mL
[11] = Table 4, contact 45 min, inoculum 2.26-2.98 × 10^5 CFU/mL
[12] = Table 4, contact 60 min, inoculum 2.26-2.98 × 10^5 CFU/mL

SMILES	Bacteria reduction % (CA-MRSA 40065; contact 3 min)	Bacteria reduction Log10 (CA-MRSA 40065; contact 3 min)	Bacteria reduction % (CA-MRSA 40065; contact 5 min)	Bacteria reduction Log10 (CA-MRSA 40065; contact 5 min)	Bacteria reduction % (CA-MRSA 40065; contact 10 min)	Bacteria reduction Log10 (CA-MRSA 40065; contact 10 min)	Bacteria reduction % (CA-MRSA 40065; contact 60 min)	Bacteria reduction Log10 (CA-MRSA 40065; contact 60 min)	Reduction of P. aeruginosa (P. aeruginosa 73104)	Bacteria reduction % (P. aeruginosa 73104; [1])	Bacteria reduction % (P. aeruginosa 73104; [2])	Bacteria reduction Log10 (P. aeruginosa 73104; [3])	Bacteria reduction % (P. aeruginosa 73104; [4])	Bacteria reduction Log10 (P. aeruginosa 73104; [4])	Bacteria reduction % (P. aeruginosa 73104; [5])	Bacteria reduction Log10 (P. aeruginosa 73104; [5])	Bacteria reduction % (P. aeruginosa 73104; [6])	Bacteria reduction Log (P. aeruginosa 73104; [6])	Bacteria reduction % (P. aeruginosa 73104; [7])	Bacteria reduction Log (P. aeruginosa 73104; [7])	also measured
CC1(C)C(=O)N(CCC[N+](C)(C)CC[N+](C)(C)C)C(=O)N1Cl.[Cl-].[Cl-] [Compound 12]	88.0%	0.92 Log10	92.3%	0.92 Log10	94.2%	1.24 Log10	99.5%	2.31 Log10	cannot bring any significant reduction	39.8 ± 10.0%	44.7 ± 1.9%	0.43 ± 0.01 Log10	100%	5.35 Log10	100%	5.35 Log10	39.8%	0.22 Log	44.7%	0.26 Log	Bacteria reduction % (P. aeruginosa 73104; [8]): 62.8%; Bacteria reduction Log (P. aeruginosa 73104; [8]): 0.43 Log; Bacteria reduction % (P. aeruginosa 73104; [9]): 99.70%; Bacteria reduction Log (P. aeruginosa 73104; [9]): 2.50 Log; Bacteria reduction % (P. aeruginosa 73104; [10]): 100%; Bacteria reduction Log (P. aeruginosa 73104; [10]): 4.82 Log; Bacteria reduction % (P. aeruginosa 73104; [11]): 100%; Bacteria reduction Log (P. aeruginosa 73104; [11]): 5.47 Log; Bacteria reduction % (P. aeruginosa 73104; [12]): 100%; Bacteria reduction Log (P. aeruginosa 73104; [12]): 5.47 Log
CC1(C)C(=O)N(CCC[N+](C)(C)CCCN2C(=O)N(Cl)C(C)(C)C2=O)C(=O)N1Cl.[Cl-] [Compound 14]	79.1%	0.68 Log10	64.3%	0.45 Log10	91.9%	1.09 Log10	99.5%	2.32 Log10	cannot bring any significant reduction	22.6 ± 4.4%	24.8 ± 10.0%	0.14 ± 0.07 Log10	100%	5.35 Log10	100%	5.35 Log10	22.6%	0.11 Log	24.8%	0.13 Log	Bacteria reduction % (CA-MRSA 40065; contact 1 min): 85.8%; Bacteria reduction Log10 (CA-MRSA 40065; contact 1 min): 0.85 Log10; Bacteria reduction % (P. aeruginosa 73104; [3]): 26.6% and 26.6 ± 12.5%; Bacteria reduction % (P. aeruginosa 73104; [8]): 26.6%; Bacteria reduction Log (P. aeruginosa 73104; [8]): 0.14 Log; Bacteria reduction % (P. aeruginosa 73104; [9]): 70.8%; Bacteria reduction % (P. aeruginosa 73104; [10]): 99.96%; Bacteria reduction Log (P. aeruginosa 73104; [10]): 3.39 Log; Bacteria reduction % (P. aeruginosa 73104; [11]): 100%; Bacteria reduction Log (P. aeruginosa 73104; [11]): 5.47 Log; Bacteria reduction % (P. aeruginosa 73104; [12]): 100%; Bacteria reduction Log (P. aeruginosa 73104; [12]): 5.47 Log

From US20150118179A1, “BIOCIDAL COMPOUNDS AND METHODS FOR USING SAME” (UNIVERSITY OF MANITOBA, priority 2012, published 2015)
